Marks after values point to notes of the source that are not given here.
Experiments:
[1] = Prodrug bioconversion in intestinal S9 cell fractions; format: in vitro ADME
Experimental: (§1) Phosphatase enzymes are […] expressed with unique tissue specific isoforms and are key catalysts in the conversion of phosphate-containing prodrugs. To determine if exemplary phosphate prodrug compounds of the invention are enzymatically converted to the parent molecule across relevant species, the prodrug compounds were incubated with intestinal S9 cell fractions obtained from mouse, rat, dog, monkey, and human.
[…] Incubations were conducted in the absence and presence of 1 mM sodium orthovanadate, a phosphatase inhibitor. Prodrug depletion and parent formation were monitored by LC-MS/MS and normalized to internal standard as the analyte peak area ratio.

[2] = as above; format: in vitro ADME; conditions: 0.25 mg/mL
Experimental: as §1
Phosphate prodrugs were incubated (1 μM) for up to 2 hours in Tris-Cl buffer (pH 7.4) containing 3 mM magnesium chloride, intestinal S9 protein ([…] (ms, rat, hu, Table F) from mouse, rat, dog, monkey or human. Incubations were conducted in the absence and presence of 1 mM sodium orthovanadate, a phosphatase inhibitor. Prodrug depletion and parent formation were monitored by LC-MS/MS and normalized to internal standard as the analyte peak area ratio.

[3] = target: RIPK1 (Homo sapiens (Human), UniProt Q13546); assay: RIPK1 Binding Assay; conditions: displacement of fluorescent probe, TR-FRET
Experimental: Compounds were tested for their ability to displace a fluorescent probe from recombinant human RIPK1.
Recombinant human RIPK1 (1-375) was prepared as described in Harris et al., ACS Med. Chem. Letters (2013) 4:1238-1243 (Supplementary Information), with the following exceptions: (i) instead of using the gene sequence from NM_003804.3, the gene was synthesized with codon optimization for BEV expression system, and (ii) the gene was cloned into the vector pFastBac1, not pDEST8.
A fluorescent probe containing an Oregon green fluorophore was synthesized from a compound known to bind to RIPK1.
The assay was performed in a buffer containing 50 mM N-2-Hydroxyethylpiperazine-N′-2-ethanesulfonic acid (HEPES) (pH 7.5), 10 mM MgCl2, 1 mM ethylene diamine tetraacetic acid (EDTA), and 0.01% BRIJ-35 (Polyoxyethylene (23) lauryl ether). Test compounds were solvated in dimethyl sulfoxide (DMSO) at final concentrations 4-fold serially diluted from 100 to 0.000095 uM in technical duplicates into an empty 384 well plate. Recombinant RIPK1 (final concentration of 2.5 nM) was added to the wells and incubated with test compound for 1 hour at room temperature. A solution containing the fluorescent probe (final concentration 5 nM) and an LanthaScreen Tb-anti-GST antibody (Thermofisher Scientific; final concentration of 5 nM) was then added to each well, with the Tb-anti-GST antibody binding to the GST portion of the recombinant RIPK1 and providing the corresponding FRET pair to the fluorescent probe. The plate was incubated for 1 hour at room temperature and read on an Envision plate reader using a time resolved FRET protocol. Data was normalized and analyzed using Studies from Dotmatics.

Chain of RIPK1 (Q13546 1-375): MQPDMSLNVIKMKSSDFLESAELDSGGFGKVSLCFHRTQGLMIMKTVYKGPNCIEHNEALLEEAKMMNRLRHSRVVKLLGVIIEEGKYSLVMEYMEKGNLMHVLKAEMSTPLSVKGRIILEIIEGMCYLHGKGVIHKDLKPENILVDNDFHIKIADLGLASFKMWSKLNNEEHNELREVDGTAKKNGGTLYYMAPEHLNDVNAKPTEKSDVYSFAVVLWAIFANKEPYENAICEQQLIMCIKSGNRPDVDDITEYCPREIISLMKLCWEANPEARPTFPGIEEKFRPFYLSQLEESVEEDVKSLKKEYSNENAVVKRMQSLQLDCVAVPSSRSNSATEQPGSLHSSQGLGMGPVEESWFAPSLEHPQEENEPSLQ

SMILES: CN(C[C@H](Cc1ccccc1)OP(=O)(O)O)C(=O)c1cncc(C#Cc2cnn(C(F)F)c2)c1 [Example 19, (S)-1-(5-((1-(difluoromethyl)-1H-pyrazol-4-yl)ethynyl)-N-methylnicotinamido)-3-phenylpropan-2-yl dihydrogen phosphate]
- Clint (prodrug disappearance) ([1]; Human, 0.01 mg/mL S9 protein, Table F): 1608.5 μL/min/mg intestinal S9 protein
- Clint (prodrug disappearance) ([1]; Human, 0.25 mg/mL S9 protein, Table F): 296 μL/min/mg intestinal S9 protein
- Clint (prodrug disappearance) ([1]; Human, 0.25 mg/mL, Experiment 1): 246 μL/min/mg intestinal S9 protein
- Clint (prodrug disappearance) ([1]; Human, 0.25 mg/mL, Experiment 2): 228 μL/min/mg intestinal S9 protein
- Clint (prodrug disappearance) ([1]; Human, 0.25 mg/mL, Experiment 3): 235 μL/min/mg intestinal S9 protein
- Clint (prodrug disappearance) ([1]; Human, 0.25 mg/mL, Mean of 3 experiments): 236.3 μL/min/mg intestinal S9 protein
- Clint (prodrug disappearance) ([1]; Mouse, 0.01 mg/mL S9 protein, Table F): 116.8 μL/min/mg intestinal S9 protein
- Clint (prodrug disappearance) ([1]; Mouse, 0.25 mg/mL S9 protein, Table F): 54.7 μL/min/mg intestinal S9 protein
- Clint (prodrug disappearance) ([1]; Mouse, 0.25 mg/mL, Experiment 1): 43.1 μL/min/mg intestinal S9 protein
- Clint (prodrug disappearance) ([1]; Mouse, 0.25 mg/mL, Experiment 2): 74.6 μL/min/mg intestinal S9 protein
- Clint (prodrug disappearance) ([1]; Mouse, 0.25 mg/mL, Experiment 3): 42.2 μL/min/mg intestinal S9 protein
- Clint (prodrug disappearance) ([1]; Mouse, 0.25 mg/mL, Mean of 3 experiments): 53.3 μL/min/mg intestinal S9 protein
- Clint (prodrug disappearance) ([1]; Rat, 0.01 mg/mL S9 protein, Table F): <137** μL/min/mg intestinal S9 protein
- Clint (prodrug disappearance) ([1]; Rat, 0.25 mg/mL S9 protein, Table F): 42.4 μL/min/mg intestinal S9 protein
- Clint (prodrug disappearance) ([1]; Rat, 0.25 mg/mL, Experiment 1): 25.6 μL/min/mg intestinal S9 protein
- Clint (prodrug disappearance) ([1]; Rat, 0.25 mg/mL, Experiment 2): 16.9 μL/min/mg intestinal S9 protein
- Clint (prodrug disappearance) ([1]; Rat, 0.25 mg/mL, Experiment 3): 50.6 μL/min/mg intestinal S9 protein
- Clint (prodrug disappearance) ([1]; Rat, 0.25 mg/mL, Mean of 3 experiments): 31 μL/min/mg intestinal S9 protein
- Clint (prodrug disappearance) ([2]; Dog, Experiment 1): 331 μL/min/mg intestinal S9 protein
- Clint (prodrug disappearance) ([2]; Dog, Experiment 2): 387 μL/min/mg intestinal S9 protein
- Clint (prodrug disappearance) ([2]; Dog, Experiment 3): 397 μL/min/mg intestinal S9 protein
- Clint (prodrug disappearance) ([2]; Dog, Mean of 3 experiments): 371.7 μL/min/mg intestinal S9 protein
- Clint (prodrug disappearance) ([2]; Monkey, Experiment 1): 87.5 μL/min/mg intestinal S9 protein
- Clint (prodrug disappearance) ([2]; Monkey, Experiment 2): 60.3 μL/min/mg intestinal S9 protein
- Clint (prodrug disappearance) ([2]; Monkey, Experiment 3): 60.7 μL/min/mg intestinal S9 protein
- Clint (prodrug disappearance) ([2]; Monkey, Mean of 3 experiments): 69.5 μL/min/mg intestinal S9 protein

SMILES: CN(C[C@@H](O)Cc1ccccc1)C(=O)c1cncc(C#Cc2cnn(C(F)F)c2)c1 [Example 2, (S)-5-((1-(difluoromethyl)-1H-pyrazol-4-yl)ethynyl)-N-(2-hydroxy-3-phenylpropyl)-N-methylnicotinamide]
- IC50 [3]: 4 nM

Source: US11767310B2, “Nicotinamide RIPK1 inhibitors” (AbbVie Inc., priority 2021, dated 2023)
